Assay results: US6287572A, “Anti-HIV peptides and proteins” (Oxford Biomedica (UK) Limited, priority 1997, dated 2001)
“Also recorded” adds a separate entry of the source.

Experiments:
HIV-1 = details: Neidrig et al 1994; cited from earlier work
HIV-1IIIB virus [1] = test: Peptide inhibition experiment, U937 culture; assay type: cell-based; details: peptide 200 mg/ml, RT activity in supernatant
Description: (§1) A series of overlapping p17 derived 1 5mer peptides were used. The peptides were dissolved in phosphate-buffered saline pH 7.0 and used at a final concentration of 200 mg/ml. For each peptide, 2×10^5 U937 cells were pelleted and resuspended in […] media containing […] of a stock of HIV-1IIIB virus (giving a multiplicity of infection of 0.25) and 200 mg/ml of the appropriate peptide. Following incubation for two days, the cells were pelleted and resuspended in fresh media containing peptide. After a further three days incubation, […] of the culture was removed and added to 1×10^5 C8166 cells in a total volume of […] with the appropriate peptide. Samples of both the U937 and C8166 culture supernatants were taken after a further two and three days incubation and assayed for RT activity. In addition, the C8166 cells were visually inspected for the appearance of syncytia on day three.

HIV-1IIIB virus [2] = test: Peptide inhibition experiment, C8166 culture; assay type: cell-based; details: peptide 200 mg/ml, RT activity in supernatant
Description: as §1

Row | Substance | inhibitory activity of peptide in previous studies (HIV-1) | RT titer, U937 day 7 (HIV-1IIIB virus [1]; day 7) | RT titer, U937 day 8 (HIV-1IIIB virus [1]; day 8) | RT titer, C8166 day 2 (HIV-1IIIB virus [2]; day 2) | RT titer, C8166 day 3 (HIV-1IIIB virus [2]; day 3)
1 | 23 to 46: p17 peptide spanning residues 23 to 46 of previous studies (Neidrig et al 1994) (GGKKKYKLKHIVWASRELERFAVN; Matrix protein p17; UniProt P04591 24-47, looked up, fragment) | no inhibitory activity; also recorded: no inhibitory effect |  |  |  | 
2 | 47 to 59: inhibitory p17 peptide spanning residues 47 to 59 of previous studies (Neidrig et al 1994) (PGLLETSEGCRQI; Matrix protein p17; UniProt P04591 48-60, looked up, fragment) | inhibitory |  |  |  | 
3 | 51-65: p17-derived 15mer peptide, corresponding p17 residues 51-65 (ETSEGCRQILGQLQP; Matrix protein p17; UniProt P04591 52-66, looked up, fragment) [Mutant 51-65] |  | 14.8 × 10^3 cpm/ml | 47.0 × 10^3 cpm/ml | 19.9 × 10^3 cpm/ml | 33.6 × 10^3 cpm/ml
